DC50 and IC50 data for nine molecules are collected here from patent US20240366770A1, “DEGRADATION OF BRUTON'S TYROSINE KINASE (BTK) BY CONJUGATION OF BTK INHIBITORS WITH E3 LIGASE LIGAND AND METHODS OF USE” (BeiGene Switzerland GmbH, priority 2021, published 2024).

One assay concerns the target T1, BTK (Homo sapiens, UniProt Q06187).
T1 construct: High control=Cell group with added DMSO and without compound, indicating microplate readings without BTK degradation; endogenous in cells; host or cells: TMD-8
Description: BTK degradation in TMD-8 cells (HTRF assay). The format is cell-based. To be noted: 6 h treatment, IC50 (DC50) of BTK degradation. In outline: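 BTK remaining after compound treatment was measured by HTRF (337 nm excitation, 665/620 nm emission) in lysates of TMD-8 cells. Cells were exposed for 6 h to eight 6-fold-spaced concentrations in 0.2% DMSO. DC50 values were obtained from a Hill-equation fit (top, bottom, slope) of % inhibition.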
For orientation: Time-resolved FRET reads energy transfer from a long-lived donor to a nearby acceptor.

A further assay concerns HEK-293 cells. The assay can be described thus: HEK-293 cytotoxicity detection (CellTiter-Glo). The settings on record: Homo sapiens; HEK-293 cells, 72 h incubation, CellTiter-Glo luminescence, IC50 of cell proliferation inhibition; read-out: HEK293. Type of assay: cell-based. Summed up: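 Four-parameter logistic fitting of percent inhibition versus concentration gives IC50. Luminescent ATP read-out (CellTiter-Glo) after 72 h compound treatment of HEK-293 cells, 8 doses in 4-fold steps from a 5 mM 500× DMSO stock, final DMSO 0.2%.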
(In general: Cellular ATP, detected with luciferase, serves as a proxy for viable cell number.)

pIC50: −log10 of the molar value. Bounds are passed on as bounds.

T1 sequence (Q06187 whole entry): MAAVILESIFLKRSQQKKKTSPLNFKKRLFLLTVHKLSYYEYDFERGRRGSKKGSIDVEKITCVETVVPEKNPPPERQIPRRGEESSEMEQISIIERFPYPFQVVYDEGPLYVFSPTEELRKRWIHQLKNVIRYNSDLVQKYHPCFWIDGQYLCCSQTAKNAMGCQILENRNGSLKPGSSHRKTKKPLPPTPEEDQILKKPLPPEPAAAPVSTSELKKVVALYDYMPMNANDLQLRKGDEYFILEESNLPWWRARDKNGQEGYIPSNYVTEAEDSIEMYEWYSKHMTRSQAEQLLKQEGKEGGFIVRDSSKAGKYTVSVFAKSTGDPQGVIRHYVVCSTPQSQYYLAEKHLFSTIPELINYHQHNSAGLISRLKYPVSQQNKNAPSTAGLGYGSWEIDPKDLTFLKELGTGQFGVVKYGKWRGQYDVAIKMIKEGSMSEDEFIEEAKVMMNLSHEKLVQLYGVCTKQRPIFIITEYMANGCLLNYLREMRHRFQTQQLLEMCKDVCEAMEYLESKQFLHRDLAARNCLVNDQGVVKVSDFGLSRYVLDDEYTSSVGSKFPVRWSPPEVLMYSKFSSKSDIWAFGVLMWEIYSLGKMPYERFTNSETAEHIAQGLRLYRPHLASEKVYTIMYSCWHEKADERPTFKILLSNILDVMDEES

The DC50 is the midpoint of the concentration-degradation curve. `Cc1cc(-c2ncnc3[nH]c4cc(C5=CCN(CC6CCN(c7ccc(N8CCC(=O)NC8=O)cc7)CC6)C5)ccc4c23)ccc1[C@@H](C)NC(=O)c1nc(C(C)(C)C)no1` [Example 10, (R)-3-(tert-butyl)-N-(1-(4-(7-(1-((1-(4-(2,4-dioxotetrahydropyrimidin-1(2H)-yl)phenyl)piperidin-4-yl)methyl)-2,5-dihydro-1H-pyrrol-3-yl)-9H-pyrimido[4,5-b]indol-4-yl)-2-methylphenyl)ethyl)-1,2,4-oxadiazole-5-carboxamide]: at BTK, it took 1.51 nM to reach half-maximal degradation (DC50). The pIC50 in the assay on HEK-293 cells is below 5.00.
On to `COc1cc2c(cc1N1CCN(C3CC(c4ccc([C@@H]5CCC(=O)NC5=O)cc4)C3)CC1)[nH]c1ncnc(-c3ccc([C@@H](C)NC(=O)c4nc(C(C)(C)C)no4)c(C)c3)c12` (stereo partly drawn) [Example 49, 3-(tert-butyl)-N—((R)-1-(4-(7-(4-(3-(4-((S)-2,6-dioxopiperidin-3-yl)phenyl)cyclobutyl)piperazin-1-yl)-6-methoxy-9H-pyrimido[4,5-b]indol-4-yl)-2-methylphenyl)ethyl)-1,2,4-oxadiazole-5-carboxamide], for which, at BTK, it took 1.08 nM to reach half-maximal degradation (DC50). Besides, the pIC50 with HEK-293 cells is below 5.00.
`Cc1cc(-c2ncnc3[nH]c4cc(N5CCN(Cc6ccc7c(c6)N(C6CCC(=O)NC6=O)C(=O)C76CC6)CC5)ccc4c23)c(F)cc1[C@@H](C)NC(=O)c1noc(C(C)(C)C)n1` (stereo partly drawn) [Example 91, 5-(tert-butyl)-N-((1R)-1-(4-(7-(4-((1′-(2,6-dioxopiperidin-3-yl)-2′-oxospiro[cyclopropane-1,3′-indolin]-6′-yl)methyl)piperazin-1-yl)-9H-pyrimido[4,5-b]indol-4-yl)-5-fluoro-2-methylphenyl)ethyl)-1,2,4-oxadiazole-3-carboxamide]: on BTK, the half-maximal degradation concentration (DC50) was above 2000 nM. Further, the pIC50 with HEK-293 cells is below 5.00.
For `Cc1cc(-c2ncnc3[nH]c4cc(-c5ccn(CC6CCN(c7ccc(N8CCC(=O)NC8=O)cc7)CC6)c5)ccc4c23)ccc1[C@@H](C)NC(=O)c1nc(C(C)(C)C)no1` [Example 11, (R)-3-(tert-butyl)-N-(1-(4-(7-(1-((1-(4-(2,4-dioxotetrahydropyrimidin-1(2H)-yl)phenyl)piperidin-4-yl)methyl)-1H-pyrrol-3-yl)-9H-pyrimido[4,5-b]indol-4-yl)-2-methylphenyl)ethyl)-1,2,4-oxadiazole-5-carboxamide], in that order: 9.78 nM and below 5.00.
For `COc1cc2c(cc1N1CCN(CC3CCN(c4ccc(N5CCC(=O)NC5=O)cc4)CC3)CC1)[nH]c1ncnc(-c3ccc([C@@H](C)NC(=O)c4nc(C5(C)CC5)no4)c(C)c3F)c12` [Example 53, (R)—N-(1-(4-(7-(4-((1-(4-(2,4-dioxotetrahydropyrimidin-1(2H)-yl)phenyl)piperidin-4-yl)methyl)piperazin-1-yl)-6-methoxy-9H-pyrimido[4,5-b]indol-4-yl)-3-fluoro-2-methylphenyl)ethyl)-3-(1-methylcyclopropyl)-1,2,4-oxadiazole-5-carboxamide], the 50% degradation concentration (DC50) at BTK came out at 2.26 nM. Moreover, in the assay on HEK-293 cells, the pIC50 is below 5.00.
The matching figures for `COc1cc2c(cc1N1CCN(CC3CCN(c4ccc(N5CCC(=O)NC5=O)cc4)CC3)CC1)[nH]c1ncnc(-c3cc(C)c([C@@H](C)NC(=O)c4nc(C5(C)CC5)no4)cc3F)c12` [Example 93, (R)—N-(1-(4-(7-(4-((1-(4-(2,4-dioxotetrahydropyrimidin-1(2H)-yl)phenyl)piperidin-4-yl)methyl)piperazin-1-yl)-6-methoxy-9H-pyrimido[4,5-b]indol-4-yl)-5-fluoro-2-methylphenyl)ethyl)-3-(1-methylcyclopropyl)-1,2,4-oxadiazole-5-carboxamide]: 2.51 nM and below 5.00.
The matching figures for `COc1cc2c(cc1N1CCN(C3CC(c4ccc([C@H]5CCC(=O)NC5=O)cc4)C3)CC1)[nH]c1ncnc(-c3ccc([C@@H](C)NC(=O)c4nc(C(C)(C)C)no4)c(C)c3)c12` (stereo partly drawn) [Example 50, 3-(tert-butyl)-N—((R)-1-(4-(7-(4-(3-(4-((R)-2,6-dioxopiperidin-3-yl)phenyl)cyclobutyl)piperazin-1-yl)-6-methoxy-9H-pyrimido[4,5-b]indol-4-yl)-2-methylphenyl)ethyl)-1,2,4-oxadiazole-5-carboxamide]: 0.171 nM and below 5.00.
For `Cc1c([C@@H](C)NC(=O)c2noc(C(C)(C)C)n2)ccc(-c2ncnc3[nH]c4cc(N5CCN(Cc6ccc7c(c6)C6(CC6)C(=O)N7C6CCC(=O)NC6=O)CC5)ccc4c23)c1F` (stereo partly drawn) [Example 79, 5-(tert-butyl)-N-((1R)-1-(4-(7-(4-((1′-(2,6-dioxopiperidin-3-yl)-2′-oxospiro[cyclopropane-1,3′-indolin]-5′-yl)methyl)piperazin-1-yl)-9H-pyrimido[4,5-b]indol-4-yl)-3-fluoro-2-methylphenyl)ethyl)-1,2,4-oxadiazole-3-carboxamide], it took 15.9 nM to reach half-maximal degradation at BTK (DC50). For the same molecule, the pIC50 with HEK-293 cells was below 5.00.
For `Cc1c([C@@H](C)NC(=O)c2noc(C(C)(C)C)n2)ccc(-c2ncnc3[nH]c4cc(N5CCN(C6CCN(c7cccc(C8CCC(=O)NC8=O)c7)CC6)CC5)ccc4c23)c1F` (stereo partly drawn) [Example 34, 5-(tert-butyl)-N-((1R)-1-(4-(7-(4-(1-(3-(2,6-dioxopiperidin-3-yl)phenyl)piperidin-4-yl)piperazin-1-yl)-9H-pyrimido[4,5-b]indol-4-yl)-3-fluoro-2-methylphenyl)ethyl)-1,2,4-oxadiazole-3-carboxamide], in that order: 1.23 nM and 5.84.
